# In ChEMBL document CHEMBL5370598, “[3H]UR-JG102-A Radiolabeled Cyclic Peptide with High Affinity and Excellent Selectivity for the Neuropeptide Y Y4 Receptor” (J Med Chem, 2023):
# pEC50, pKi: −log10 of the molar value.
# Assays:
# [1] = biological target: T1, Neuropeptide Y receptor type 4 (Homo sapiens, UniProt P50391); assay: Agonist activity at human Y4R expressed in CHO cells co-expressing Gqi5-mtAEQ by calcium2+ aequorin assay relative to control; type: functional, cell-based; settings: filed as agonist
# T1 sequence (P50391 whole entry): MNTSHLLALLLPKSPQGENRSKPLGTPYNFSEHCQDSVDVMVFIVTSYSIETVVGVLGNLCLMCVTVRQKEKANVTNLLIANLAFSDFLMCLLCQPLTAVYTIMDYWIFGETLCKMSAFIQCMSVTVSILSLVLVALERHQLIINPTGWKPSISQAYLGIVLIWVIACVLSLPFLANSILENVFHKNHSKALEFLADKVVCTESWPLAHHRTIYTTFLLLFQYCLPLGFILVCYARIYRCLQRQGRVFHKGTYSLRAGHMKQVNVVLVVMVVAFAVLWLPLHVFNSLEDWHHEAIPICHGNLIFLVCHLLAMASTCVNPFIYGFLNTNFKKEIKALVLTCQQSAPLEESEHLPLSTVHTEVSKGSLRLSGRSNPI
# [2] = biological target: T1, Neuropeptide Y receptor type 4; assay: Displacement of [3H]UR-KK200 from human Y4R expressed in CHO cells co-expressing Gqi5-mtAEQ; type: cell-based; settings: for pKi: read-out: Ki; for Ki: read-out: pKi (converted)
# [3] = biological target: T2, Neuropeptide Y receptor type 2 (Homo sapiens, UniProt P49146); assay: Displacement of [3H]propionyl-pNPY from human Y2R expressed in CHO cells; type: cell-based; settings: for pKi: read-out: Ki; for Ki: read-out: pKi (converted)
# T2 sequence (P49146 whole entry): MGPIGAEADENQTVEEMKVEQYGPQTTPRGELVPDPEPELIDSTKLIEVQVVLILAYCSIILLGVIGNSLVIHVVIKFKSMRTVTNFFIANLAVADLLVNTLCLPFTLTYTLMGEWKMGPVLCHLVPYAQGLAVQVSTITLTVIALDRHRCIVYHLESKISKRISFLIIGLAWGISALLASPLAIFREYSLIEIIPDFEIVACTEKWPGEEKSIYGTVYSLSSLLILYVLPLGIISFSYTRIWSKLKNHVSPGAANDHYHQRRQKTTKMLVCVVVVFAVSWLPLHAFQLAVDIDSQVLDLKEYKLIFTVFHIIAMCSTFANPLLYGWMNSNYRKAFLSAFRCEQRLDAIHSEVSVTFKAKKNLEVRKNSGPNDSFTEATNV
# [4] = biological target: T3, Neuropeptide Y receptor type 5 (Homo sapiens, UniProt Q15761); assay: Displacement of [3H]propionyl-pNPY from human Y5R expressed in HEC-1B cells; type: cell-based, HEC-1B cell line; settings: for pKi: hec-1b cell line, read-out: Ki; for Ki: read-out: pKi (converted)
# T3 sequence (Q15761 whole entry): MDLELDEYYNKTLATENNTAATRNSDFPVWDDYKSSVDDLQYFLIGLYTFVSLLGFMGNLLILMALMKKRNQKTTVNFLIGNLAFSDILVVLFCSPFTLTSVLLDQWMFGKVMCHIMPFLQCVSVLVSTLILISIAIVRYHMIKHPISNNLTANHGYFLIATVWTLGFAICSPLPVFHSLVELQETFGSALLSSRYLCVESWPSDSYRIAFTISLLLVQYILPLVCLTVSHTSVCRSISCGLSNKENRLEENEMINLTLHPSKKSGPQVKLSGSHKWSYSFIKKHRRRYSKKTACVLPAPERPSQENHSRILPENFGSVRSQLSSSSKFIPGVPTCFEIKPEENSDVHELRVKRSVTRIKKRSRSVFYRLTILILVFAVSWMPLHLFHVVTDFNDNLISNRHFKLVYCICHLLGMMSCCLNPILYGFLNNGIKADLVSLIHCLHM
# [5] = biological target: T1, Neuropeptide Y receptor type 4; assay: Agonist activity at human Y4R expressed in HEK293T cells by miniGsi assay; type: functional, cell-based
# [6] = biological target: T4, Neuropeptide Y receptor type 1 (Homo sapiens, UniProt P25929); assay: Displacement of [3H]UR-MK299 from human Y1R expressed in SK-N-MC cells; type: cell-based; settings: for Ki: read-out: pKi (converted); for pKi: read-out: Ki
# T4 sequence (P25929 whole entry): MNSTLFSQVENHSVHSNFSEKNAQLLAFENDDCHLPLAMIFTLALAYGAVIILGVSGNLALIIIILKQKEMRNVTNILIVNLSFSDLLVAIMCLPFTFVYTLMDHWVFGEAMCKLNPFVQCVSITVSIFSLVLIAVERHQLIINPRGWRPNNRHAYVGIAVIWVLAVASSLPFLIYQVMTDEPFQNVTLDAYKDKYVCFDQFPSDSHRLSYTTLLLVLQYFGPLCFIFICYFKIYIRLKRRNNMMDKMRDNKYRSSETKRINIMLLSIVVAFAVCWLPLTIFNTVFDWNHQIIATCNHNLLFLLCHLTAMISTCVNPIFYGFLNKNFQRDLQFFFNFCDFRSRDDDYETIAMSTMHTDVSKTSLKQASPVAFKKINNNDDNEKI
# [7] = biological target: T1, Neuropeptide Y receptor type 4; assay: Agonist activity at human Y4R expressed in HEK293T cells by miniGsi assay relative to control; type: functional, cell-based; settings: filed as agonist
# [8] = biological target: T1, Neuropeptide Y receptor type 4; assay: Agonist activity at human Y4R expressed in CHO cells co-expressing Gqi5-mtAEQ by calcium2+ aequorin assay; type: functional, cell-based; settings: for pEC50: read-out: EC50; for EC50: read-out: pEC50 (converted)
# [9] = biological target: T1, Neuropeptide Y receptor type 4; assay: Agonist activity at human Y4R expressed in HEK293T cells incubated for 60 mins by cAMP CAMYEN assay relative to control; type: functional, cell-based; settings: filed as agonist
# [10] = biological target: T1, Neuropeptide Y receptor type 4; assay: Agonist activity at human Y4R expressed in HEK293T cells incubated for 60 mins by cAMP CAMYEN assay; type: functional, cell-based; settings: for pEC50: read-out: EC50
Emax [1] [%],pKi [2],pKi ([3]; cho),Ki [3] [nM],pKi [4],Ki [4] [nM],pEC50 [5],Ki [6] [nM],pKi ([6]; sk-n-mc),Emax [7] [%],pEC50 [8],Ki [2] [nM],Emax [9] [%],pKi [3],pEC50 [10],pKi [6],EC50 [8] [nM],EC50 ([10]; read-out: pEC50 (converted)) [nM],Compound
79,10.39,< 5.00,> 10000,< 6.00,> 1000,8.96,> 1000,< 6.00,56,8.10,–,–,–,–,–,–,–,CC(C)C[C@H](NC(=O)[C@@H]1CCCN/C(N)=N/C(=O)NCCCCNC(=O)[C@H](N)CC(=O)N[C@@H](CCCNC(=N)N)C(=O)N[C@@H](Cc2ccc(O)cc2)C(=O)N1)C(=O)N[C@@H](CCCNC(=N)N)C(=O)N[C@@H](Cc1ccc(O)cc1)C(N)=O
70,9.92,–,> 3160,< 6.00,> 1000,8.59,> 1000,< 6.00,64,7.66,0.11,81,< 5.52,9.96,–,–,–,CCC(=O)N[C@@H]1CC(=O)NCCCCNC(=O)/N=C(\N)NCCC[C@@H](C(=O)N[C@@H](CC(C)C)C(=O)N[C@@H](CCCNC(=N)N)C(=O)N[C@@H](Cc2ccc(O)cc2)C(N)=O)NC(=O)[C@H](Cc2ccc(O)cc2)NC(=O)[C@H](CCCNC(=N)N)NC1=O
70,9.48,< 5.00,> 10000,< 6.00,> 1000,8.33,> 3160,–,55,7.72,–,–,–,–,< 5.52,13.2,–,CC(C)C[C@H](NC(=O)[C@@H]1CCCN/C(N)=N/C(=O)NCCCCNC(=O)C[C@H](N)C(=O)N[C@@H](CCCNC(=N)N)C(=O)N[C@@H](Cc2ccc(O)cc2)C(=O)N1)C(=O)N[C@@H](CCCNC(=N)N)C(=O)N[C@@H](Cc1ccc(O)cc1)C(N)=O
74,10.18,< 5.00,> 10000,< 6.00,> 1000,8.80,> 1000,< 6.00,51,8.05,–,85,–,10.20,–,6.31,0.0501,CCC(=O)N[C@@H]1CC(=O)N[C@@H](CCCNC(=N)N)C(=O)N[C@@H](Cc2ccc(O)cc2)C(=O)N[C@H](C(=O)N[C@@H](CC(C)C)C(=O)N[C@@H](CCCNC(=N)N)C(=O)N[C@@H](Cc2ccc(O)cc2)C(N)=O)CCCN/C(N)=N/C(=O)NCCCCNC1=O
69,10.03,–,912,< 6.00,> 1000,8.60,> 1000,< 6.00,62,7.74,0.0912,–,< 6.02,–,–,–,–,CC(C)C[C@H](NC(=O)[C@@H]1CCCN/C(N)=N/C(=O)NCCCCNC(=O)[C@H](NC(=O)CCCN)CC(=O)N[C@@H](CCCNC(=N)N)C(=O)N[C@@H](Cc2ccc(O)cc2)C(=O)N1)C(=O)N[C@@H](CCCNC(=N)N)C(=O)N[C@@H](Cc1ccc(O)cc1)C(N)=O
63,10.51,< 5.00,> 10000,< 6.00,> 1000,9.05,> 1000,< 6.00,68,7.96,–,–,–,–,–,–,–,CC(C)C[C@H](NC(=O)[C@@H]1CCCN/C(N)=N/C(=O)NCCCCNC(=O)C[C@@H](N)C(=O)N[C@@H](CCCNC(=N)N)C(=O)N[C@@H](Cc2ccc(O)cc2)C(=O)N1)C(=O)N[C@@H](CCCNC(=N)N)C(=O)N[C@@H](Cc1ccc(O)cc1)C(N)=O
